Where “and” joins values, the source holds several entries; their conditions need not be identical. Equal entries are not always repeated. ± gives the expanded uncertainty stated by the source.
Experiment: excess molar enthalpy (molar enthalpy of mixing); xn = mol fraction of the nth substance listed
Conditions: 1060 K, 101 kPa, Liquid, Calvet calorimetry

[I][La]([I])[I] [lanthanum triiodide] + [I-].[K+]
Conditions | excess molar enthalpy
x1 = 0.048 | -0.464 ± 0.0741 kcal/mol
x1 = 0.1 | -0.973 ± 0.155 kcal/mol
x1 = 0.152 | -1.53 ± 0.239 kcal/mol
x1 = 0.199 | -1.64 kcal/mol and -1.93 kcal/mol
x1 = 0.246 | -2.13 ± 0.335 kcal/mol
x1 = 0.25 | -1.76 ± 0.287 kcal/mol
x1 = 0.304 | -1.79 ± 0.287 kcal/mol
x1 = 0.348 | -1.89 ± 0.311 kcal/mol
x1 = 0.354 | -2.3 ± 0.359 kcal/mol
x1 = 0.398 | -1.93 ± 0.311 kcal/mol

[I][La]([I])[I] [lanthanum triiodide] + [I-].[Na+]
Conditions | excess molar enthalpy [kcal/mol]
x1 = 0.0482 | -0.189 ± 0.0311
x1 = 0.0991 | -0.415 ± 0.0669
x1 = 0.1503 | -0.462 ± 0.0741
x1 = 0.2 | -0.678 ± 0.108
x1 = 0.2477 | -0.549 ± 0.0884
x1 = 0.296 | -0.821 ± 0.131
x1 = 0.3412 | -0.655 ± 0.105
x1 = 0.3968 | -0.69 ± 0.11
x1 = 0.3984 | -0.763 ± 0.122
x1 = 0.4454 | -0.683 ± 0.11
x1 = 0.4931 | -0.497 ± 0.0789
x1 = 0.4966 | -0.576 ± 0.0932
x1 = 0.5392 | -0.605 ± 0.098
